Measurements: patent US20120309706A1, “COMBINED TREATMENT OF PANCREATIC CANCER WITH GEMCITABINE AND MASITINIB” (AB SCIENCE, priority 2010, published 2012)
Where two headings read alike, the source gives them in different places. Marks after values point to notes of the source that are not given here. Each block holds one compound with its values, some of them ahead of it.

Key:
Capan-2 = assay: WST-1 proliferation/survival assay, Capan-2; assay type: cell-based, human; conditions: Capan-2, single agent, 1% FCS
Experimental: (§1) Sensitivity of pancreatic tumour cell lines to masitinib or gemcitabine as single agents, or in combination, was assessed using WST-1 proliferation assays. Four cell lines were tested for their sensitivity to masitinib (A) or gemcitabine (B). […] (D) Sensitivity of resistant Mia Paca-2 cells to various tyrosine kinase inhibitors alone (top) or in combination with gemcitabine (bottom) was analyzed in WST-1 proliferation assays.
(§2) Pancreatic cancer cells lines (Mia Paca-2, Panc-1, BxPC-3 and Capan-2) were obtained from Dr. Juan Iovanna (Inserm, France). Cells were maintained in RPMI (BxPC-3, Capan-2) or DMEM (Mia Paca-2, Panc-1) medium containing glutamax-1 (Lonza), supplemented with 100 U/ml penicillin/100 μg/ml streptomycin, and 10% foetal calf serum (FCS) (AbCys, Lot S02823S1800). Expression of tyrosine kinases was determined by RT-PCR using Hot Star Taq (Qiagen GmbH, Hilden, Germany) in a 2720 Thermal Cycler (Applied Biosystems).
(§3) Cytotoxicity of masitinib and gemcitabine was assessed using a WST-1 proliferation/survival assay (Roche diagnostic) in growth medium containing 1% FCS. Treatment was started with the addition of the respective drug. […] After 72 hours WST-1 reagent was added and incubated with the cells for 4 hours before absorbance measurement at 450 nm in an EL800 Universal Microplate Reader (Bio-Tek Instruments Inc.). Media alone was used as a blank and proliferation in the absence of compounds served as positive control. Results are representative of three/four experiments. The masitinib sensitisation index is the ratio of the IC50 of gemcitabine against the IC50 of the drug combination.

Panc-1 = assay: WST-1 proliferation/survival assay, Panc-1; assay type: cell-based; conditions: Homo sapiens
Experimental: as §1, §2, §3

pancreatic cancer = conditions: cited from earlier work
Mia Paca-2 = assay: WST-1 proliferation/survival assay, Mia Paca-2; assay type: cell-based, human; conditions: for IC50: Homo sapiens; for response of Mia Paca-2 cells to gemcitabine after pre-incubation with TKI: 10 μM imatinib or dasatinib, compared to masitinib
Experimental: as §1, §2, §3
Comparison of masitinib to other TKIs for their potential to sensitize gemcitabine-resistant pancreatic cancer cells: Similar TKI plus gemcitabine combination experiments to those described above were performed with gemcitabine-resistant Mia Paca-2 cells to compare masitinib with imatinib (Gleevec™, STI-571; Novartis, Basel, Switzerland), a TKI targeting ABL, PDGFR, and c-Kit); and dasatinib (Sprycel, Bristol-Myers Squibb), a TKI targeting SRC, ABL, PDGFR, and c-Kit.

Mia Paca-2 cells [1] = assay: Gene expression profiling (Affymetrix U133 Plus 2.0 microarrays) and pathway analysis; assay type: cell-based, human; conditions: for down-regulated genes / up-regulated genes: fold-change threshold of 2; for deregulated genes: fold-change threshold of 2, treated/untreated; for deregulated genes specific to the treatment: pathway analysis, Ingenuity
Experimental: Gene expression profiling of cell lines (from 2 μg RNA) was assessed using whole-genome Affymetrix U133 Plus 2.0 human oligonucleotide microarrays. Generation of expression matrices, data annotation, filtering and processing have been previously described [Giroux V et al., 2006 Clin Cancer Res 12: 235-241]. Microarray statistics and cluster analysis were performed by the Robust Multichip Average method in R using Bioconductor and using the Cluster and TreeView programs. Drug response signatures were generated by differential analysis, which compared the expression profile of each treated cell line with that of the untreated cell line by measuring the fold-change (treated/untreated) of each probe set. The lists of differential genes were interrogated using the Ingenuity Pathway Analysis software (Version 5.5.1-1002; Ingenuity Systems, Redwood City, Calif.) with a significance threshold for the corrected p-value<0.05. MIAME compliant array data can be accessed at (www.ebi.ac.uk/arrayexpress) using the accession number GSE17987.
Whole-genome clustering of the four cell samples sorted them into two opposite clusters (data not shown). The two treatment conditions with gemcitabine clustered together (left cluster), whereas cells treated with masitinib alone clustered with the untreated cells (right cluster). […] This was confirmed by the differential analysis of expression profile. […] These drug response expression signatures were characterised via pathway analysis using Ingenuity software. […] This pathway is involved in pancreatic development and re-activation of this signalling system has been implicated in pancreatic carcinoma with reported nuclear localisation of the downstream effector β-catenin. […] Three other pathways altered to a lesser extent included: ERK/MAPK Signalling, CDK5 Signalling, and PI3K/AKT Signalling (p=0.016, 0.025, 0.039, respectively).

[2] = tested on: Mia Paca-2 pancreatic tumours; assay: Nog-SCID mouse model of human pancreatic cancer; assay type: in vivo, Nog-SCID mice; conditions: for Tumour volume, Median: following 28 days of treatment (day 56)
Experimental: Mia Paca-2 tumour cells (10^7) were injected into the flank of Nog-SCID mice. Treatment was initiated 28 days after tumour cell injection. The different groups were treated with either: twice weekly injections of gemcitabine (i.p. 50 mg/kg), daily oral masitinib (100 mg/kg), water (control), or combined daily oral masitinib (100 mg/kg) and twice weekly injections of gemcitabine. Mice were treated for 56 days.
Male Nog-Scid mice (7 weeks old) were obtained from internal breeding and were housed under specific pathogen-free conditions at 20±1° C. in a 12-hour light/12-hour dark cycle and ad libitum access to food and filtered water. Mia Paca-2 cells were cultured as described above. At day 0 (D0), mice were injected with 107 Mia Paca-2 cells in 200 μl PBS into the right flank. Tumours were allowed to grow for 1.5 to 4 weeks until the desired tumour size was reached (˜200 mm3). At day 28, animals were allocated into four treatment groups (n=7 to 8 per group), ensuring that each group's mean body weight and tumour volume were well matched, and treatment was initiated for a duration of 4 to 5 weeks. Treatments consisted of either: a) daily sterile water for the control group, b) an intraperitoneal (i.p.) injection of 50 mg/kg gemcitabine twice a week, c) daily gavage with 100 mg/kg masitinib, or d) combined i.p injection of 50 mg/kg gemcitabine twice a week and daily gavage with 100 mg/kg masitinib. Tumour size was measured with callipers and tumour volume was estimated using the formula: volume=(length×width2)/2. The tumour growth inhibition ratio was calculated as (100)×(median tumour volume of treated group)/(median tumour volume of control group).
Relative changes in tumour volumes were compared between treatment groups using a variance analysis (ANOVA). Normality of relative changes in tumour volumes between day 28 and day 56 was first tested using the Shapiro-Wilk test of normality. […]
The tumour size was monitored every 7 days until day 56, after which time the animals were sacrificed.

BxPC-3 = assay: WST-1 proliferation/survival assay, BxPC-3; assay type: cell-based, human; conditions: BxPC-3, single agent, 1% FCS
Experimental: as §1, §2
Cytotoxicity of masitinib and gemcitabine was assessed using a WST-1 proliferation/survival assay (Roche diagnostic) in growth medium containing 1% FCS. Treatment was started with the addition of the respective drug. […] After 72 hours WST-1 reagent was added and incubated with the cells for 4 hours before absorbance measurement at 450 nm in an EL800 Universal Microplate Reader (Bio-Tek Instruments Inc.). […]

Mia Paca-2 cells [3] = assay: In vitro tyrosine phosphorylation assay (western blot, anti-pTyr); assay type: cell-based, human; conditions: 6 hours, at 1 μM and beyond
Experimental: (A) Messenger RNA expression of various receptor and cytoplasmic tyrosine kinases was analyzed by RT-PCR. Universal human reference total RNA was used as positive control for primers and the ubiquitous β-glucoronidase (GUS) served as an internal control for all RT-PCR reactions. (B) Tyrosine phosphorylation of proteins in response to masitinib. Mia Paca-2 cells (5×10^6) were treated for 6 hours at 37° C. with various concentrations of masitinib. Total cell lysates were prepared and tyrosine phosphorylation was analyzed by western blot with antibodies against phosphotyrosine (anti-pTyr). […] MW=molecular weight. […] Proteins (20 μg) were resolved by SDS-PAGE 10%, followed by western blotting and immunostaining. The following primary antibodies were used: rabbit anti-phospho-GRB2 antibody (sc-255 1:1000, Santa Cruz, Calif.), and anti-phosphotyrosine antibody (4G10 1:1000, Cell Signalling Technology, Ozyme, France). […] Immunoreactive bands were detected using enhanced chemiluminescent reagents (Pierce, USA). To estimate the range of masitinib concentration necessary to sensitize pancreatic tumor cell lines to chemotherapy, we assessed the ability of masitinib to block protein tyrosine phosphorylation by western blot analysis in cell lysates. […]

FAK = FAK (Homo sapiens, UniProt Q05397); assay: FAK activity, preliminary in vitro data; assay type: biochemical
Text: Altogether, this could provide a mechanism of action for masitinib on pancreatic cancer through the reduction of tumour progression or the inhibition of mast cell migration and activation, or both.

[4] = Masitinib clearance half-life; conditions: human, in vivo
Text: At the cut-off date for safety (17 Oct. 2008), all 22 patients enrolled had experienced at least one dose of masitinib. […] One patient reported a masitinib-related grade 4 neutropenia. The most common masitinib-related, haematological grade 3 AEs were anaemia (22.7%), lymphopenia (22.7%), neutropenia (18.2%) and leucopoenia (18.2%). The most common, masitinib-related, non-haematological grade 3 AE was asthenia (13.6% of patients). […] One patient's death was reported to be due to several AEs (two syncopes, severe abdominal pain, hypotension, grade 2 anemia, acute renal failure and respiratory distress syndrome) and was suspected to be related to masitinib at the time of occurrence. However, masitinib had been interrupted for 6 days before these fatal AEs occurred. […] Thus, the death of this patient is most unlikely related to masitinib. Four other deaths occurred during this study but none were suspected to be treatment related.

[5] = Panc-1, single agent, 72 hours, 1% FCS, read-out: IC50
[6] = Mia Paca-2, single agent, 72 hours, 1% FCS, read-out: IC50

Chain of FAK (Q05397 whole entry): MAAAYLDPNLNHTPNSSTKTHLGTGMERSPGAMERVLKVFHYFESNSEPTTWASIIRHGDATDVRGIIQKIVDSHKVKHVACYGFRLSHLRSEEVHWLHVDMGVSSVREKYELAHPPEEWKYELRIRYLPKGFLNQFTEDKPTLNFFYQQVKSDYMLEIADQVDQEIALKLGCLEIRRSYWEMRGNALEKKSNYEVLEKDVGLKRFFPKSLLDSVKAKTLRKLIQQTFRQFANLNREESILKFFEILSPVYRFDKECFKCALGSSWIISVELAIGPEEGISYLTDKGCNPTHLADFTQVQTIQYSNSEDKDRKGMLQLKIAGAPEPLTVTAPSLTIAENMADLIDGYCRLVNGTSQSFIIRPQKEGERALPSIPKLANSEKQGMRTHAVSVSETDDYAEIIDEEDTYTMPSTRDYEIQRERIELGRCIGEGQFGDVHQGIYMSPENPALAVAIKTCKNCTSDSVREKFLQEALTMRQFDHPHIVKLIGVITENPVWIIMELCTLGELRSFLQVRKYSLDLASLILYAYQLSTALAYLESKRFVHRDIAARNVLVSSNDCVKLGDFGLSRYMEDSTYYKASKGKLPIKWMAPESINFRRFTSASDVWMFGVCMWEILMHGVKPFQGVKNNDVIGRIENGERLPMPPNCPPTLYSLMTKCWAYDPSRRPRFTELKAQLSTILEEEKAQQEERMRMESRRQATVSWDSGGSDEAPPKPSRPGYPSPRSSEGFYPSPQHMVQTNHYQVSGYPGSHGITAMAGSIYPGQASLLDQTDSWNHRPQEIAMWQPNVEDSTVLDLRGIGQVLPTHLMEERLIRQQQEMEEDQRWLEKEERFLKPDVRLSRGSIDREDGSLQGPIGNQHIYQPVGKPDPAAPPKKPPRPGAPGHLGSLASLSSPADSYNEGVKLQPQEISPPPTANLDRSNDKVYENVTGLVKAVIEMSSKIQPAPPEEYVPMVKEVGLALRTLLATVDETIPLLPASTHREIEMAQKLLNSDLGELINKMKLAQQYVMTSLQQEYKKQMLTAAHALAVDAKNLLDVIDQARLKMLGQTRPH

SMILES: Nc1ccn(C2OC(CO)C(O)C2(F)F)c(=O)n1 (centres unmarked) [Gemcitabine, 4-amino-1-[3,3-difluoro-4-hydroxy-5-(hydroxymethyl)tetrahydrofuran-2-yl]-1H-pyrimidin-2-one]
- IC50 (Capan-2; 72 hours): 2 µM
- IC50 (Capan-2; Homo sapiens, Capan-2, 72 h): 2 to 20 µM
- IC50 (Panc-1; Panc-1, gemcitabine monotherapy, read-out: IC50 (resistance)): > 2500 µM
- IC50 (Panc-1; [5]): > 10 µM
- medium TTP (pancreatic cancer; Burris et al. 1997, advanced pancreatic population (locally advanced and metastatic)): 2.33 months
- TTP threshold (pancreatic cancer; Storniolo et al. 1999, solely locally advanced patients): 4.1 months
- 1-year survival rate (pancreatic cancer; clinical trial of erlotinib plus gemcitabine versus gemcitabine monotherapy, p=0.023): 17%
- median OS (pancreatic cancer; clinical trial of erlotinib plus gemcitabine versus gemcitabine monotherapy): 5.91 months
- 12-month survival rates, published (pancreatic cancer; comparison): 21%
- median OS, published (pancreatic cancer; comparison): 6 months
- 1-year survival rate (pancreatic cancer; standard gemcitabine therapy): 21%
- median overall survival (OS) (pancreatic cancer; standard gemcitabine therapy, locally advanced, unresectable, or metastatic pancreatic adenocarcinoma): 6 months
- IC50 (Mia Paca-2; Mia Paca-2, gemcitabine monotherapy, read-out: IC50 (resistance)): > 2500 µM
- IC50 (Mia Paca-2; [6]): > 10 µM
- down-regulated genes (Mia Paca-2 cells [1]): 113 genes
- up-regulated genes (Mia Paca-2 cells [1]): 1048 genes
- deregulated genes (Mia Paca-2 cells [1]): 1161 genes
- deregulated genes specific to the treatment (Mia Paca-2 cells [1]): 818 genes
- tumour growth between day 35 and 49 ([2]; FIG. 3): stabilization of tumour growth
- Tumour volume, Median [2]: 662* mm^3
- IC50 (BxPC-3; 72 hours): 2 to 20 µM

- FAK auto-activation (FAK): partially inhibits FAK auto-activation
- reduces FAK activity (FAK; masitinib 1 μM): 21%
- half-life [4]: 17 h
SMILES: Cc1ccc(NC(=O)c2ccc(CN3CCN(C)CC3)cc2)cc1Nc1nc(-c2cccnc2)cs1 [Masitinib, 4-(4-methylpiperazin-1-ylmethyl)-N-[4-methyl-3-(4-pyridin-3ylthiazol-2-ylamino)phenyl]benzamide]
- IC50 (Capan-2; Homo sapiens, Capan-2, 72 h): 5 to 10 µM
- protein tyrosine phosphorylation (western blot) (Mia Paca-2 cells [3]): clearly inhibited tyrosine phosphorylation
- IC50 (Panc-1; [5]): 5 to 10 µM
- response of Mia Paca-2 cells to gemcitabine after pre-incubation with TKI (Mia Paca-2): able to restore sensitivity to gemcitabine
- IC50 (Mia Paca-2; [6]): 5 to 10 µM
- down-regulated genes (Mia Paca-2 cells [1]): 29 genes
- up-regulated genes (Mia Paca-2 cells [1]): 325 genes
- deregulated genes (Mia Paca-2 cells [1]): 354 genes
- deregulated genes specific to the treatment (Mia Paca-2 cells [1]): 201 genes
- Tumour volume, Median [2]: 865 mm^3
- IC50 (BxPC-3; Homo sapiens, BXPC-3, 72 h): 5 to 10 µM

SMILES: Cc1nc(Nc2ncc(C(=O)Nc3c(C)cccc3Cl)s2)cc(N2CCN(CCO)CC2)n1 [dasatinib]
- cells remaining resistant (Mia Paca-2; Mia Paca-2, dasatinib alone >0.1 μM): < 50%

SMILES: Cc1ccc(NC(=O)c2ccc(CN3CCN(C)CC3)cc2)cc1Nc1nccc(-c2cccnc2)n1 [imatinib]
- response of Mia Paca-2 cells to gemcitabine after pre-incubation with TKI (Mia Paca-2): did not result in an increased response
- Mia Paca-2 cell proliferation, TKI alone (Mia Paca-2; imatinib alone 10 μM): not inhibited
